Assay results: PubChem BioAssay AID1259407 (Chemical Carcinogenesis Research Information System (CCRIS), 2018)
The source made the active and inactive calls. No rule for the calls is given here.

System: CCRIS mutagenicity, Ames/micronucleus/aberration tests
Assay: CCRIS mutagenicity studies
[1] = Test System: AMES SALMONELLA TYPHIMURIUM, Strain/Indicator: TA97, Metabolic Activation: NONE, Method: STANDARD PLATE
[2] = Test System: AMES SALMONELLA TYPHIMURIUM, Strain/Indicator: TA98, Metabolic Activation: NONE, Method: STANDARD PLATE
[3] = Test System: AMES SALMONELLA TYPHIMURIUM, Strain/Indicator: TA100, Metabolic Activation: NONE, Method: STANDARD PLATE

## NC(N)=S
Test System: AMES SALMONELLA TYPHIMURIUM, Strain/Indicator: TA97, Metabolic Activation: HAMSTER, LIVER, S-9, AROCLOR 1254 (10 OR 30%), Method: PREINCUBATION
  mutagenic call: inactive; negative
Test System: AMES SALMONELLA TYPHIMURIUM, Strain/Indicator: TA97, Metabolic Activation: NONE, Method: PREINCUBATION
  mutagenic call: inactive; negative
[1]
  mutagenic call: inactive; negative
Test System: AMES SALMONELLA TYPHIMURIUM, Strain/Indicator: TA97, Metabolic Activation: RAT, LIVER, S-9, AROCLOR 1254 (10 OR 30%), Method: PREINCUBATION
  mutagenic call: inactive; negative
Test System: AMES SALMONELLA TYPHIMURIUM, Strain/Indicator: TA97, Metabolic Activation: RAT, LIVER, S-9, AROCLOR 1254, Method: STANDARD PLATE
  mutagenic call: inactive; negative
Test System: AMES SALMONELLA TYPHIMURIUM, Strain/Indicator: TA98, Metabolic Activation: HAMSTER, LIVER, S-9, AROCLOR 1254 (10 OR 30%), Method: PREINCUBATION
  mutagenic call: inactive; negative
Test System: AMES SALMONELLA TYPHIMURIUM, Strain/Indicator: TA98, Metabolic Activation: NONE, Method: PREINCUBATION
  mutagenic call: inactive; negative
[2]
  mutagenic call: inactive; negative
Test System: AMES SALMONELLA TYPHIMURIUM, Strain/Indicator: TA98, Metabolic Activation: RAT LIVER S-9, PHENOBARBITAL AND BETA-NAPHTHOFLAVONE, Method: PREINCUBATION
  mutagenic call: inactive; negative
Test System: AMES SALMONELLA TYPHIMURIUM, Strain/Indicator: TA98, Metabolic Activation: RAT, LIVER, S-9, AROCLOR 1254 (10 OR 30%), Method: PREINCUBATION
  mutagenic call: inactive; negative
Test System: AMES SALMONELLA TYPHIMURIUM, Strain/Indicator: TA98, Metabolic Activation: RAT, LIVER, S-9, AROCLOR 1254, Method: STANDARD PLATE
  mutagenic call: inactive; negative
Test System: AMES SALMONELLA TYPHIMURIUM, Strain/Indicator: TA100, Metabolic Activation: HAMSTER, LIVER, S-9, AROCLOR 1254 (10 OR 30%), Method: PREINCUBATION
  mutagenic call: inactive; negative
Test System: AMES SALMONELLA TYPHIMURIUM, Strain/Indicator: TA100, Metabolic Activation: NONE, Method: PREINCUBATION
  mutagenic call: inactive; negative
[3]
  mutagenic call: inactive; negative
Test System: AMES SALMONELLA TYPHIMURIUM, Strain/Indicator: TA100, Metabolic Activation: RAT LIVER S-9, PHENOBARBITAL AND BETA-NAPHTHOFLAVONE, Method: PREINCUBATION
  mutagenic call: inactive; negative
Test System: AMES SALMONELLA TYPHIMURIUM, Strain/Indicator: TA100, Metabolic Activation: RAT, LIVER, S-9, AROCLOR 1254 (10 OR 30%), Method: PREINCUBATION
  mutagenic call: inactive; negative
Test System: AMES SALMONELLA TYPHIMURIUM, Strain/Indicator: TA100, Metabolic Activation: RAT, LIVER, S-9, AROCLOR 1254, Method: STANDARD PLATE
  mutagenic call: inactive; negative
Test System: AMES SALMONELLA TYPHIMURIUM, Strain/Indicator: TA1535, Metabolic Activation: HAMSTER, LIVER, S-9, AROCLOR 1254 (10 OR 30%), Method: PREINCUBATION
  mutagenic call: inactive; negative
Test System: AMES SALMONELLA TYPHIMURIUM, Strain/Indicator: TA1535, Metabolic Activation: NONE, Method: PREINCUBATION
  mutagenic call: inactive; negative
Test System: AMES SALMONELLA TYPHIMURIUM, Strain/Indicator: TA1535, Metabolic Activation: RAT LIVER S-9, PHENOBARBITAL AND BETA-NAPHTHOFLAVONE, Method: PREINCUBATION
  mutagenic call: inactive; negative
Test System: AMES SALMONELLA TYPHIMURIUM, Strain/Indicator: TA1535, Metabolic Activation: RAT, LIVER, S-9, AROCLOR 1254 (10 OR 30%), Method: PREINCUBATION
  mutagenic call: inactive; negative
Test System: AMES SALMONELLA TYPHIMURIUM, Strain/Indicator: TA1537, Metabolic Activation: NONE, Method: PREINCUBATION
  mutagenic call: inactive; negative
Test System: AMES SALMONELLA TYPHIMURIUM, Strain/Indicator: TA1537, Metabolic Activation: RAT LIVER S-9, PHENOBARBITAL AND BETA-NAPHTHOFLAVONE, Method: PREINCUBATION
  mutagenic call: inactive; negative
Test System: E. COLI, Strain/Indicator: WP2 UVRA, Metabolic Activation: HAMSTER, LIVER, S-9, AROCLOR 1254, Method: STANDARD PLATE
  mutagenic call: inactive; negative
Test System: E. COLI, Strain/Indicator: WP2 UVRA, Metabolic Activation: HAMSTER, LIVER, S-9, Method: STANDARD PLATE
  mutagenic call: inactive; negative
Test System: E. COLI, Strain/Indicator: WP2 UVRA, Metabolic Activation: MOUSE, LIVER, S-9, AROCLOR 1254, Method: STANDARD PLATE
  mutagenic call: inactive; negative
Test System: E. COLI, Strain/Indicator: WP2 UVRA, Metabolic Activation: MOUSE, LIVER, S-9, Method: STANDARD PLATE
  mutagenic call: inactive; negative
Test System: E. COLI, Strain/Indicator: WP2 UVRA, Metabolic Activation: NONE, Method: STANDARD PLATE
  mutagenic call: inactive; negative
Test System: E. COLI, Strain/Indicator: WP2 UVRA, Metabolic Activation: RAT, LIVER, S-9, AROCLOR 1254, Method: STANDARD PLATE
  mutagenic call: inactive; negative
Test System: E. COLI, Strain/Indicator: WP2 UVRA, Metabolic Activation: RAT, LIVER, S-9, Method: STANDARD PLATE
  mutagenic call: inactive; negative
Test System: E.COLI, Strain/Indicator: WP2UVRA/PKM101, Metabolic Activation: NONE, Method: PREINCUBATION
  mutagenic call: inactive; negative
Test System: E.COLI, Strain/Indicator: WP2UVRA/PKM101, Metabolic Activation: RAT LIVER S-9, PHENOBARBITAL AND BETA-NAPHTHOFLAVONE, Method: PREINCUBATION
  mutagenic call: inactive; negative
Test System: MOUSE LYMPHOMA, Strain/Indicator: L5178Y (TK+/TK-), Metabolic Activation: NONE, Method: SUSPENSION/PLATE
  mutagenic call: inactive; negative

## O=[N+]([O-])c1cccc2nscc12
[2]
  mutagenic call: active; positive
Test System: AMES SALMONELLA TYPHIMURIUM, Strain/Indicator: TA98, Metabolic Activation: S-9, Method: STANDARD PLATE
  mutagenic call: active; positive
[3]
  mutagenic call: active; positive
Test System: AMES SALMONELLA TYPHIMURIUM, Strain/Indicator: TA100, Metabolic Activation: S-9, Method: STANDARD PLATE (TEST MATERIAL SOLVENT:DMSO)
  mutagenic call: active; positive
Test System: AMES SALMONELLA TYPHIMURIUM, Strain/Indicator: TA1535, Metabolic Activation: NONE, Method: STANDARD PLATE
  mutagenic call: active; positive
Test System: AMES SALMONELLA TYPHIMURIUM, Strain/Indicator: TA1535, Metabolic Activation: S-9, Method: STANDARD PLATE
  mutagenic call: inactive; negative
Test System: AMES SALMONELLA TYPHIMURIUM, Strain/Indicator: TA1537, Metabolic Activation: NONE, Method: STANDARD PLATE
  mutagenic call: active; positive
Test System: AMES SALMONELLA TYPHIMURIUM, Strain/Indicator: TA1537, Metabolic Activation: S-9, Method: STANDARD PLATE
  mutagenic call: inactive; negative

## O=C1OC(O)C(Cl)=C1Cl (configuration not stated)
[3]
  mutagenic call: active; positive
Test System: UDS RAT HEPATOCYTES, Strain/Indicator: THYMIDINE INCORPORATION, Metabolic Activation: NONE, Method: AUTORADIOGRAPHY
  mutagenic call: active; positive

## CC1CN(/N=C/c2ccc([N+](=O)[O-])o2)C(=O)N1 (configuration not stated)
Test System: AMES SALMONELLA TYPHIMURIUM, Strain/Indicator: TA100, Metabolic Activation: RAT, LIVER, S-9, KC500 OR PHENOBARBITAL, Method: LIQUID SUSPENSION
  mutagenic call: active; positive

## CCNc1nc(NC(C)C)[nH]c(=O)n1
[1]
  mutagenic call: inactive; negative
[2]
  mutagenic call: inactive; negative
[3]
  mutagenic call: inactive; negative
